Measurements from US7135466B2 (Kirin Beer Kabushiki Kaisha, priority 1999, dated 2006).
Where two headings read alike, the source gives them in different places.

Columns and labels:
c-kit = target: T1, c-kit (Homo sapiens, UniProt P10721); assay: Inhibitory activity against c-kit autophosphorylation (MO7e cells, h-SCF); assay type: cell-based; conditions: for IC50: MO7e cells, read-out: c-kit IC50
T1 construct: MO7e (human megakaryocytic leukemia cell line) which had been arrested for 20 hr; endogenous in cells; host or cells: MO7e human megakaryocytic leukemia cell line
T1 sequence (P10721 26-976): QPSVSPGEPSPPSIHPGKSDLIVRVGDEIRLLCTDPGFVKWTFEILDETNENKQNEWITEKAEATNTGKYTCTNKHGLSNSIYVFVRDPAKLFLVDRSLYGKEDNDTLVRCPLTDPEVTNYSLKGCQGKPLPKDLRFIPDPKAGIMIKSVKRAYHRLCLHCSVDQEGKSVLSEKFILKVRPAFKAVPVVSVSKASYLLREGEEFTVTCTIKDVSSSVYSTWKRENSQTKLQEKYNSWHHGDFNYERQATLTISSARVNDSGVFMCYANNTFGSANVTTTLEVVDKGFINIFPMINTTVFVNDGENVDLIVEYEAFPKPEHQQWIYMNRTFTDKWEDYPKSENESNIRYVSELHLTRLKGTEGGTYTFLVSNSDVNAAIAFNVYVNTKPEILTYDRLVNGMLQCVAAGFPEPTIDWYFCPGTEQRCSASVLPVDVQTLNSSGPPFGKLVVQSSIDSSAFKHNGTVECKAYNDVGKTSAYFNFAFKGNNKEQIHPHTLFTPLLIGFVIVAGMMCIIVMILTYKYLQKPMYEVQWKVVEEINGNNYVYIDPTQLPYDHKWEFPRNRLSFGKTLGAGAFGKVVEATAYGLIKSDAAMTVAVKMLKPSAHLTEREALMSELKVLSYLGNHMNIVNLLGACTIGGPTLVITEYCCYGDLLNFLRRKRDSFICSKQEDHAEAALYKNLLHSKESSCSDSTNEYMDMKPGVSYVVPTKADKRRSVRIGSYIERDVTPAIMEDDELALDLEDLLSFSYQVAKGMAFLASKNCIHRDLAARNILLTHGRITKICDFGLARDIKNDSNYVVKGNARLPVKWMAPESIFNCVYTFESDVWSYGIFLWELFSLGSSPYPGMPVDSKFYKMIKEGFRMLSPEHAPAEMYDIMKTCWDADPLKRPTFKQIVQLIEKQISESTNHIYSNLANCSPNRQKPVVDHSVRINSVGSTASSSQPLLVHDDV
How it was run: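 In this cellular autophosphorylation assay, compound-treated MO7e cells (1 hr) were challenged with human stem cell factor at 50 ng/ml for 5 min; detection relied on PY-20 capture and anti-c-kit/HRP immunodetection at 450 nm.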

PDGF-Ra = target: T2, PDGF-Ra (Homo sapiens, UniProt P16234); assay: Inhibitory activity against PDGF-Ra phosphorylation by PDGF-AA stimulation using G292; assay type: cell-based; conditions: > means inhibition at indicated concentration not more than 50%, < and << not less than 50%, read-out: PDGF (E) IC50
T2 construct: host or cells: G-292 human osteosarcoma cells
T2 sequence (P16234 24-1089): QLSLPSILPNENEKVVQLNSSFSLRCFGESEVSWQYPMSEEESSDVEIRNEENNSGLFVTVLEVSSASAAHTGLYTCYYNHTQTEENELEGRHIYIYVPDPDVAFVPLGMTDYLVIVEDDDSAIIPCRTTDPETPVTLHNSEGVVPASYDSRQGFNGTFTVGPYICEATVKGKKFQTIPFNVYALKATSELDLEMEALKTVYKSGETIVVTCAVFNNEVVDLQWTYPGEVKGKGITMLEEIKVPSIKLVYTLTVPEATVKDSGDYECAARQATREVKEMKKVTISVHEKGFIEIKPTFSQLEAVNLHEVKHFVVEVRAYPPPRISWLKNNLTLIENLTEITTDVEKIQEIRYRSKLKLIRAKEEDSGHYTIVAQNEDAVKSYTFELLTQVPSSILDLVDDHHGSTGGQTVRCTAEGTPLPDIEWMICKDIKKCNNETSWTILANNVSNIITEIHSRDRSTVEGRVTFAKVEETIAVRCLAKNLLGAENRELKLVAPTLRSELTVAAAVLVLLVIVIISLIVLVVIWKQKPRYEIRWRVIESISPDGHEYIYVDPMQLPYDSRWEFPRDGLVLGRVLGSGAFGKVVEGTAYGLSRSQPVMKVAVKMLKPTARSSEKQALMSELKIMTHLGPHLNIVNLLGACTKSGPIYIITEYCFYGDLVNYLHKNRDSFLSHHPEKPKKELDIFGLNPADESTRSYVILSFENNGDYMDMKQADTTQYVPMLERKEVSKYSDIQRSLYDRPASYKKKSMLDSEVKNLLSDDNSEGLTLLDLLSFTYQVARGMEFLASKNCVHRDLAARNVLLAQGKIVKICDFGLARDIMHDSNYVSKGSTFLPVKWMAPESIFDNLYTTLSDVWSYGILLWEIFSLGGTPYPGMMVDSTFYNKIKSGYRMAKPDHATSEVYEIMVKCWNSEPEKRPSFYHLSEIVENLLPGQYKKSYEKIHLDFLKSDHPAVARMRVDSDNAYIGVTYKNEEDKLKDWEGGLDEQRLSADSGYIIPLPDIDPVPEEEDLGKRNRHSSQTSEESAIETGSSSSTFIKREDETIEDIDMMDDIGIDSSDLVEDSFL
How it was run: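 G-292 human osteosarcoma cells in 0.1% FBS medium overnight, given compound for 1 hr at 37° C, then PDGF-AA 50 ng/ml for 5 min. Lysates captured on anti-phosphotyrosine (PY-20) plates and probed with anti-PDGF-Ra plus HRP secondary; absorbance at 450 nm.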

Compound	IC50 (PDGF-Ra) [µM]	IC50 (c-kit; h-SCF 50 ng/ml) [µM]	IC50 (PDGF-Ra; Pharmacological Test Example 1) [µM]	other results
COc1cc2ncnc(Oc3ccc(NC(=S)NCCCN4CCCCC4C)cc3)c2cc1OC (stereo not drawn) [Example 534, N-{4-[(6,7-Dimethoxy-4-quinazolinyl)oxy]phenyl}-N′-{3-[1-(2-methylpiperidinyl)]propyl}thiourea]	0.051	–	–	inhibition at 1 µM (c-kit; Mo7e, figure within parentheses in −( ) or >1000( ), at 1000 nM): 35%
COc1cc2nccc(Oc3ccc(NC(=O)OCCCOc4ccccc4F)cc3)c2cc1OC [Example 142, 3-(2-Fluorophenoxy)propyl N-{4-[(6,7-dimethoxy-4-quinolyl)oxy]phenyl}carbamate]	–	< 0.03	< 0.01	–
COc1cc2nccc(Oc3ccc(NC(=O)Oc4ccccc4C(C)(C)C)c(C)c3C)c2cc1OC [Example 302, 2-(Tert-butyl)phenyl N-{4-[(6,7-dimethoxy-4-quinolyl)oxy]-2,3-dimethylphenyl}carbamate]	–	0.202	0.012	–
COc1cc2nccc(Oc3ccc(NC(=O)OCc4ccccc4Cl)c(C)c3C)c2cc1OC [Example 235, 2-Chlorobenzyl N-{4-[(6,7-dimethoxy-4-quinolyl)oxy]-2,3-dimethylphenyl}carbamate]	–	0.057	< 0.003	–
COc1cc2nccc(Oc3ccc(NC(=O)OC4CCCN(C)C4)cc3)c2cc1OC (stereo not drawn) [Example 462, 1-Methyl-3-piperidyl N-{4-[(6,7-dimethoxy-4-quinolyl)oxy]phenyl}carbamate]	0.052	–	–	IC50 (c-kit; 50 ng/ml h-SCF): 0.575 µM
COc1cc2nccc(Oc3ccc(NC(=S)NC(=O)c4cc(C)cc(C)c4)cc3Cl)c2cc1OC [Example 1019, N-{3-Chloro-4-[(6,7-dimethoxy-4-quinolyl)oxy]phenyl}-N′-(3,5-dimethylbenzoyl)thiourea]	0.022	–	–	IC50 (c-kit; h-SCF stimulation): 0.187 µM
COc1cc2nccc(Oc3ccc(NC(=S)NC(=O)COCc4ccccc4)cc3F)c2cc1OC [Example 1032, N-[2-(Benzyloxy)acetyl]-N′-{4-[(6,7-dimethoxy-4-quinolyl)oxy]-3-fluorophenyl}thiourea]	< 0.01	–	–	IC50 (c-kit; h-SCF stimulation): 0.321 µM
COc1cc2nccc(Oc3ccc(NC(=S)NC(=O)C4CCCCC4)cc3Cl)c2cc1OC [Example 1179, N-{3-Chloro-4-[(6,7-dimethoxy-4-quinolyl)oxy]phenyl}-N′-cyclohexylcarbonylthiourea]	0.014	–	–	IC50 (c-kit; h-SCF stimulation): 0.327 µM
CCOCCC(=O)NC(=S)Nc1ccc(Oc2ccnc3cc(OC)c(OC)cc23)cc1 [Example 1065, N-{4-[(6,7-Dimethoxy-4-quinolyl)oxy]phenyl}-N′-(3-ethoxypropanoyl)thiourea]	0.019	–	–	IC50 (c-kit; h-SCF stimulation): 0.566 µM
COc1cc2nccc(Oc3ccc(NC(=O)OCC4CCCCC4)cc3)c2cc1OC [Example 283, Cyclohexylmethyl N-{4-[(6,7-dimethoxy-4-quinolyl)oxy]phenyl}carbamate]	–	0.121	< 0.01	–
3-[(4-Methylphenyl)sulfanyl]ethyl N-{4-[(6,7-dimethoxy-4-quinolyl)oxy]-2,5-dimethylphenyl}carbamate [Example 139]	–	0.08	0.057	–
COc1cc2nccc(Oc3cc(C)c(NC(=O)OCc4ccccc4C)cc3C)c2cc1OC [Example 245, 2-Methylbenzyl N-{4-[(6,7-dimethoxy-4-quinolyl)oxy]-2,5-dimethylphenyl}carbamate]	–	0.408	0.016	–
COc1cc2nccc(Oc3ccc(NC(=O)OCc4cccnc4)c(C)c3C)c2cc1OC [Example 432, 3-Pyridylmethyl N-{4-[(6,7-dimethoxy-4-quinolyl)oxy]-2,3-dimethylphenyl}carbamate]	0.013	–	–	IC50 (c-kit; 50 ng/ml h-SCF): < 0.03 µM
COc1cc2ncnc(Oc3ccc(NC(=O)OCCSc4ccc(C)cc4)cc3)c2cc1OC [Example 140]	–	0.234	< 0.01	–
CCCCOC(=O)Nc1cc(C)c(Oc2ccnc3cc(OC)c(OC)cc23)cc1C [Example 322, Butyl N-{4-[(6,7-dimethoxy-4-quinolyl)oxy]-2,5-dimethylphenyl}carbamate]	–	0.06	< 0.01	–
